One assay has as its target T1, 5-lipoxygenase (Rattus norvegicus, UniProt P12527).
T1 construct: supernatant fraction of Rat Basophilic Leukemia Cell Homogenate (RBL-1) serves as a 5-lipoxygenase enzyme source; endogenous in cells; host or cells: RBL-1 (rat basophilic leukemia) cells, 100,000×g supernatant of homogenate
T1 sequence (P12527 1-673): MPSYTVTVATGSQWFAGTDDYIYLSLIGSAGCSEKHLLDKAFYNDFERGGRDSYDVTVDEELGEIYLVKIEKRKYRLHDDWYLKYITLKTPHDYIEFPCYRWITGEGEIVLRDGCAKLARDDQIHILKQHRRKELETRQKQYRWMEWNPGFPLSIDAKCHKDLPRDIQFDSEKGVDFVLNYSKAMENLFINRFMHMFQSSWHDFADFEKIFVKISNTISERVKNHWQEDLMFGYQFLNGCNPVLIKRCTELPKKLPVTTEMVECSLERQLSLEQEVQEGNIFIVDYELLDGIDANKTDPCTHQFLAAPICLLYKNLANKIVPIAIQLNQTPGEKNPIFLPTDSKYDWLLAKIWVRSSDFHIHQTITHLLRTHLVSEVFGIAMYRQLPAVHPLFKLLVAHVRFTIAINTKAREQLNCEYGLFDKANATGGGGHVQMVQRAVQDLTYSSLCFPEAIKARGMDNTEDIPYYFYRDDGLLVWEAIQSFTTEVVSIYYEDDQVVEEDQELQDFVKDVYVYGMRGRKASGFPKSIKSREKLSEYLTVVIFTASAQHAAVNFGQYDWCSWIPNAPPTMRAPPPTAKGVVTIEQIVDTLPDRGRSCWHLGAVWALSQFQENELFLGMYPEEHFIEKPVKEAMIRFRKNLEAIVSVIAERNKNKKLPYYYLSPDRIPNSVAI
Nature of the assay: Inhibition of 5-lipoxygenase, in vitro (5-HETE synthesis, RBL-1 homogenate supernatant). The assay is classed as biochemical. The note with it: RBL-1 100,000×g supernatant, [1-14C]-arachidonic acid and Ca++, 5-HETE by TLC; initial screen 1×10^-4 M. The procedure:
The compounds of the invention are evaluated with respect to 5-lipoxygenaseinhibition according to the following assay procedure.
Inhibition of 5-lipoxygenase, in vitro: anti-inflammatory, anti-allergy activities. The 100,000×g supernatant fraction of Rat Basophilic Leukemia Cell Homogenate (RBL-1) serves as a 5-lipoxygenase enzyme source. The enzyme is incubated with [1-^14 C)-arachidonic acid and Ca++ in the presence and absence of test compound. The product of 5-lipoxygenase, 5-hydroxyeicosatetraenoic acid (5-HETE), is separated by thin-layer chromatography and measured by radioactivity. A compound inhibiting 5-HETE synthesis by 30% or more is considered active at that concentration.

The conditions of assay [1]: versus histamine; cited from earlier work.

Take `CCCCCSc1cc(C(C)(C)C)c(O)c(C(C)(C)C)c1` [Example 3, 2,6-bis(1,1-dimethylethyl)-4-(pentylthio)phenol]: inhibition against 5-lipoxygenase was half-maximal at 1.2 µM (IC50). This counts as single-digit micromolar. The compound `CC(C)Sc1cc(C(C)(C)C)c(O)c(C(C)(C)C)c1` [Example 4, 2,6-bis(1,1-dimethylethyl)-4-[(1-methylethyl)thio]-phenol] gave a half-maximal inhibitory concentration (IC50) against 5-lipoxygenase of 1.3 µM. The IC50 values of the last two compounds are within 1.5-fold of each other. Consider `CSc1cc(C(C)(C)C)c(O)c(C(C)(C)C)c1` [Example 5, 2,6-bis(1,1-dimethylethyl)-4-(methylthio)phenol], for which, on 5-lipoxygenase, 0.58 µM corresponded to half-maximal inhibition (IC50). Against the preceding compound, the IC50 is about 2.2-fold lower.

On 5-lipoxygenase, `C[S+]([O-])c1cc(C(C)(C)C)c(O)c(C(C)(C)C)c1` (centres unmarked) [Example 6, 2,6-bis(1,1-dimethylethyl)-4-(methylsulfinyl)phenol] came in with an IC50 of 100 µM. As for `CC(C)(C)c1cc(S(C)(=O)=O)cc(C(C)(C)C)c1O` [Example 7, 2,6-bis(1,1-dimethylethyl)-4-(methylsulfonyl)phenol], the “5-Lipoxygenase Inhibition, in vitro, IC50” value at 5-lipoxygenase was “Inactive”. Regarding `COc1c(C(C)(C)C)cc(SC)cc1C(C)(C)C` [Example 8, 2,6-bis(1,1-dimethylethyl)-1-methoxy-4-(methylthio)benzene], the IC50 against 5-lipoxygenase was found to be 100 µM. As to `CSc1c(O)c(C(C)(C)C)cc(C(C)(C)C)c1O` [Example 9, 4,6-bis(1,1-dimethylethyl)-2-(methylthio)-1,3-benzenediol], half-maximal inhibition against 5-lipoxygenase (IC50) was put at 11 µM. As to `CCCCC/C=C\C\C=C/C=C/C=C/[C@@H](SC[C@H](NC(=O)CC[C@H](N)C(=O)O)C(=O)NCC(=O)O)[C@@H](O)CCCC(=O)O` [LTC4], the “potency relative to histamine in causing long lasting bronchoconstricting effects” value in assay [1] is listed as “at least 100 times”.

In general, IC50 refers to the concentration that inhibits the measured activity by half. The low end stands for greater potency in that assay, the high end for weaker potency in that assay.

Source of the values: patent US4835190A, “Phenolic thioethers as inhbitors of 5-lipoxygenase” (G. D. Searle & Co., priority 1987, dated 1989).
